Experimental data from US20250115595A1, “INHIBITORS OF HYPOXIA-INDUCIBLE FACTORS” (The Johns Hopkins University, priority 2021, published 2025).

Tested on: cytokine mRNAs
Experiment: RT-qPCR array of mouse cytokines and chemokines in Hepa1-6 tumors
Type: in vivo
Experimental: Total RNA from Hepa1-6 tumors was analyzed using the RT2 Profiler PCR Array of Mouse Cytokines and Chemokines (Qiagen, catalog number 330231 PAMM-150ZA) according to the manufacturer's instructions.

[1] = array of 84 cytokines and chemokines

SMILES: Brc1ccc2c(-c3csc(-c4c[nH]c5c(Br)cccc45)n3)c[nH]c2c1 [Compound 32-134D, 4-(6-bromo-1H-indol-3-yl)-2-(7-bromo-1H-indol-3-yl)thiazole]
- Mstn mRNA Fold Up- or Down-Regulation Test Group/Control Group (Hepa1-6 tumors, vs vehicle): −4.85
- Mstn mRNA X axis (Log2(fold change)) (Hepa1-6 tumors, vs vehicle): −2.28
- Nodal mRNA Fold Change Test Group/Control Group (Hepa1-6 tumors, vs vehicle): 0.29
- Nodal mRNA Fold Up- or Down-Regulation Test Group/Control Group (Hepa1-6 tumors, vs vehicle): −3.43
- Nodal mRNA X axis (Log2(fold change)) (Hepa1-6 tumors, vs vehicle): −1.78
- Osm mRNA Fold Change Test Group/Control Group (Hepa1-6 tumors, vs vehicle): 0.38
- Osm mRNA Fold Up- or Down-Regulation Test Group/Control Group (Hepa1-6 tumors, vs vehicle): −2.65
- Osm mRNA X axis (Log2(fold change)) (Hepa1-6 tumors, vs vehicle): −1.40
- Pf4 mRNA Fold Change Test Group/Control Group (Hepa1-6 tumors, vs vehicle): 0.68
- Pf4 mRNA Fold Up- or Down-Regulation Test Group/Control Group (Hepa1-6 tumors, vs vehicle): −1.47
- Pf4 mRNA X axis (Log2(fold change)) (Hepa1-6 tumors, vs vehicle): −0.56
- Ppbp mRNA Fold Change Test Group/Control Group (Hepa1-6 tumors, vs vehicle): 0.64
- Ppbp mRNA Fold Up- or Down-Regulation Test Group/Control Group (Hepa1-6 tumors, vs vehicle): −1.56
- Ppbp mRNA X axis (Log2(fold change)) (Hepa1-6 tumors, vs vehicle): −0.65
- Spp1 mRNA Fold Change Test Group/Control Group (Hepa1-6 tumors, vs vehicle): 1.71
- Spp1 mRNA Fold Up- or Down-Regulation Test Group/Control Group (Hepa1-6 tumors, vs vehicle): 1.71
- Spp1 mRNA X axis (Log2(fold change)) (Hepa1-6 tumors, vs vehicle): 0.77
- Tgfb2 mRNA Fold Change Test Group/Control Group (Hepa1-6 tumors, vs vehicle): 0.74
- Tgfb2 mRNA Fold Up- or Down-Regulation Test Group/Control Group (Hepa1-6 tumors, vs vehicle): −1.36
- Tgfb2 mRNA X axis (Log2(fold change)) (Hepa1-6 tumors, vs vehicle): −0.44
- Thpo mRNA Fold Change Test Group/Control Group (Hepa1-6 tumors, vs vehicle): 0.55
- Thpo mRNA Fold Up- or Down-Regulation Test Group/Control Group (Hepa1-6 tumors, vs vehicle): −1.82
- Thpo mRNA X axis (Log2(fold change)) (Hepa1-6 tumors, vs vehicle): −0.87
- Tnf mRNA Fold Change Test Group/Control Group (Hepa1-6 tumors, vs vehicle): 0.25
- Tnf mRNA Fold Up- or Down-Regulation Test Group/Control Group (Hepa1-6 tumors, vs vehicle): −4.00
- Tnf mRNA X axis (Log2(fold change)) (Hepa1-6 tumors, vs vehicle): −2.00
- Tnfrsf11b mRNA Fold Change Test Group/Control Group (Hepa1-6 tumors, vs vehicle): 0.25
- Tnfrsf11b mRNA Fold Up- or Down-Regulation Test Group/Control Group (Hepa1-6 tumors, vs vehicle): −4.07
- Tnfrsf11b mRNA X axis (Log2(fold change)) (Hepa1-6 tumors, vs vehicle): −2.02
- Tnfsf10 mRNA Fold Change Test Group/Control Group (Hepa1-6 tumors, vs vehicle): 1.02
- Tnfsf10 mRNA Fold Up- or Down-Regulation Test Group/Control Group (Hepa1-6 tumors, vs vehicle): 1.02
- Tnfsf10 mRNA X axis (Log2(fold change)) (Hepa1-6 tumors, vs vehicle): 0.03
- Tnfsf11 mRNA Fold Change Test Group/Control Group (Hepa1-6 tumors, vs vehicle): 0.38
- Tnfsf11 mRNA Fold Up- or Down-Regulation Test Group/Control Group (Hepa1-6 tumors, vs vehicle): −2.61
- Tnfsf11 mRNA X axis (Log2(fold change)) (Hepa1-6 tumors, vs vehicle): −1.39
- Tnfsf13b mRNA Fold Change Test Group/Control Group (Hepa1-6 tumors, vs vehicle): 0.88
- Tnfsf13b mRNA Fold Up- or Down-Regulation Test Group/Control Group (Hepa1-6 tumors, vs vehicle): −1.13
- Tnfsf13b mRNA X axis (Log2(fold change)) (Hepa1-6 tumors, vs vehicle): −0.18
- Vegfa mRNA Fold Change Test Group/Control Group (Hepa1-6 tumors, vs vehicle): 0.40
- Vegfa mRNA Fold Up- or Down-Regulation Test Group/Control Group (Hepa1-6 tumors, vs vehicle): −2.52
- Vegfa mRNA X axis (Log2(fold change)) (Hepa1-6 tumors, vs vehicle): −1.33
- Xcl1 mRNA Fold Change Test Group/Control Group (Hepa1-6 tumors, vs vehicle): 1.47
- Xcl1 mRNA Fold Up- or Down-Regulation Test Group/Control Group (Hepa1-6 tumors, vs vehicle): 1.47
- Xcl1 mRNA X axis (Log2(fold change)) (Hepa1-6 tumors, vs vehicle): 0.56
- lfna2 mRNA Fold Change Test Group/Control Group (Hepa1-6 tumors, vs vehicle): 0.26
- lfna2 mRNA Fold Up- or Down-Regulation Test Group/Control Group (Hepa1-6 tumors, vs vehicle): −3.85
- lfna2 mRNA X axis (Log2(fold change)) (Hepa1-6 tumors, vs vehicle): −1.95
- lfng mRNA Fold Change Test Group/Control Group (Hepa1-6 tumors, vs vehicle): 1.63
- lfng mRNA Fold Up- or Down-Regulation Test Group/Control Group (Hepa1-6 tumors, vs vehicle): 1.63
- lfng mRNA X axis (Log2(fold change)) (Hepa1-6 tumors, vs vehicle): 0.70
- ll1a mRNA Fold Change Test Group/Control Group (Hepa1-6 tumors, vs vehicle): 0.68
- ll1a mRNA Fold Up- or Down-Regulation Test Group/Control Group (Hepa1-6 tumors, vs vehicle): −1.47
- ll1a mRNA X axis (Log2(fold change)) (Hepa1-6 tumors, vs vehicle): −0.56
- ll1b mRNA Fold Change Test Group/Control Group (Hepa1-6 tumors, vs vehicle): 0.34
- ll1b mRNA Fold Up- or Down-Regulation Test Group/Control Group (Hepa1-6 tumors, vs vehicle): −2.92
- ll1b mRNA X axis (Log2(fold change)) (Hepa1-6 tumors, vs vehicle): −1.55
- ll1rn mRNA Fold Change Test Group/Control Group (Hepa1-6 tumors, vs vehicle): 0.68
- ll1rn mRNA Fold Up- or Down-Regulation Test Group/Control Group (Hepa1-6 tumors, vs vehicle): −1.47
- ll1rn mRNA X axis (Log2(fold change)) (Hepa1-6 tumors, vs vehicle): −0.56
- ll2 mRNA Fold Change Test Group/Control Group (Hepa1-6 tumors, vs vehicle): 0.30
- ll2 mRNA Fold Up- or Down-Regulation Test Group/Control Group (Hepa1-6 tumors, vs vehicle): −3.37
- ll2 mRNA X axis (Log2(fold change)) (Hepa1-6 tumors, vs vehicle): −1.75
- ll3 mRNA Fold Change Test Group/Control Group (Hepa1-6 tumors, vs vehicle): 0.36
- ll3 mRNA Fold Up- or Down-Regulation Test Group/Control Group (Hepa1-6 tumors, vs vehicle): −2.77
- ll3 mRNA X axis (Log2(fold change)) (Hepa1-6 tumors, vs vehicle): −1.47
- ll4 mRNA Fold Change Test Group/Control Group (Hepa1-6 tumors, vs vehicle): 0.34
- ll4 mRNA Fold Up- or Down-Regulation Test Group/Control Group (Hepa1-6 tumors, vs vehicle): −2.91
- ll4 mRNA X axis (Log2(fold change)) (Hepa1-6 tumors, vs vehicle): −1.54
- ll5 mRNA Fold Change Test Group/Control Group (Hepa1-6 tumors, vs vehicle): 0.42
- ll5 mRNA Fold Up- or Down-Regulation Test Group/Control Group (Hepa1-6 tumors, vs vehicle): −2.39
- ll5 mRNA X axis (Log2(fold change)) (Hepa1-6 tumors, vs vehicle): −1.26
- ll6 mRNA Fold Change Test Group/Control Group (Hepa1-6 tumors, vs vehicle): 0.34
- ll6 mRNA Fold Up- or Down-Regulation Test Group/Control Group (Hepa1-6 tumors, vs vehicle): −2.95
- ll6 mRNA X axis (Log2(fold change)) (Hepa1-6 tumors, vs vehicle): −1.56
- ll7 mRNA Fold Change Test Group/Control Group (Hepa1-6 tumors, vs vehicle): 0.97
- ll7 mRNA Fold Up- or Down-Regulation Test Group/Control Group (Hepa1-6 tumors, vs vehicle): −1.04
- ll7 mRNA X axis (Log2(fold change)) (Hepa1-6 tumors, vs vehicle): −0.05
- ll9 mRNA Fold Change Test Group/Control Group (Hepa1-6 tumors, vs vehicle): 0.27
- ll9 mRNA Fold Up- or Down-Regulation Test Group/Control Group (Hepa1-6 tumors, vs vehicle): −3.69
- ll9 mRNA X axis (Log2(fold change)) (Hepa1-6 tumors, vs vehicle): −1.88
- ll10 mRNA Fold Change Test Group/Control Group (Hepa1-6 tumors, vs vehicle): 0.23
- ll10 mRNA Fold Up- or Down-Regulation Test Group/Control Group (Hepa1-6 tumors, vs vehicle): −4.42
- ll10 mRNA X axis (Log2(fold change)) (Hepa1-6 tumors, vs vehicle): −2.14
- ll11 mRNA Fold Change Test Group/Control Group (Hepa1-6 tumors, vs vehicle): 0.24
- ll11 mRNA Fold Up- or Down-Regulation Test Group/Control Group (Hepa1-6 tumors, vs vehicle): −4.12
- ll11 mRNA X axis (Log2(fold change)) (Hepa1-6 tumors, vs vehicle): −2.04
- ll12a mRNA Fold Change Test Group/Control Group (Hepa1-6 tumors, vs vehicle): 0.48
- ll12a mRNA Fold Up- or Down-Regulation Test Group/Control Group (Hepa1-6 tumors, vs vehicle): −2.07
- ll12a mRNA X axis (Log2(fold change)) (Hepa1-6 tumors, vs vehicle): −1.05
- ll12b mRNA Fold Change Test Group/Control Group (Hepa1-6 tumors, vs vehicle): 0.29
- ll12b mRNA Fold Up- or Down-Regulation Test Group/Control Group (Hepa1-6 tumors, vs vehicle): −3.51
- ll12b mRNA X axis (Log2(fold change)) (Hepa1-6 tumors, vs vehicle): −1.81
- ll13 mRNA Fold Change Test Group/Control Group (Hepa1-6 tumors, vs vehicle): 0.32
- ll13 mRNA Fold Up- or Down-Regulation Test Group/Control Group (Hepa1-6 tumors, vs vehicle): −3.14
- ll13 mRNA X axis (Log2(fold change)) (Hepa1-6 tumors, vs vehicle): −1.65
- ll15 mRNA Fold Change Test Group/Control Group (Hepa1-6 tumors, vs vehicle): 0.84
- ll15 mRNA Fold Up- or Down-Regulation Test Group/Control Group (Hepa1-6 tumors, vs vehicle): 1.19
- ll15 mRNA X axis (Log2(fold change)) (Hepa1-6 tumors, vs vehicle): −0.25
- ll16 mRNA Fold Change Test Group/Control Group (Hepa1-6 tumors, vs vehicle): 0.53
- ll16 mRNA Fold Up- or Down-Regulation Test Group/Control Group (Hepa1-6 tumors, vs vehicle): −1.90
- ll16 mRNA X axis (Log2(fold change)) (Hepa1-6 tumors, vs vehicle): −0.93
- ll17a mRNA Fold Change Test Group/Control Group (Hepa1-6 tumors, vs vehicle): 0.33
- ll17a mRNA Fold Up- or Down-Regulation Test Group/Control Group (Hepa1-6 tumors, vs vehicle): −3.00
- ll17a mRNA X axis (Log2(fold change)) (Hepa1-6 tumors, vs vehicle): −1.59
- ll17f mRNA Fold Change Test Group/Control Group (Hepa1-6 tumors, vs vehicle): 0.75
- ll17f mRNA Fold Up- or Down-Regulation Test Group/Control Group (Hepa1-6 tumors, vs vehicle): −1.33
- ll17f mRNA X axis (Log2(fold change)) (Hepa1-6 tumors, vs vehicle): −0.41
- ll18 mRNA Fold Change Test Group/Control Group (Hepa1-6 tumors, vs vehicle): 0.89
- ll18 mRNA Fold Up- or Down-Regulation Test Group/Control Group (Hepa1-6 tumors, vs vehicle): −1.13
- ll18 mRNA X axis (Log2(fold change)) (Hepa1-6 tumors, vs vehicle): −0.17
- ll21 mRNA Fold Change Test Group/Control Group (Hepa1-6 tumors, vs vehicle): 0.29
- ll21 mRNA Fold Up- or Down-Regulation Test Group/Control Group (Hepa1-6 tumors, vs vehicle): −3.46
- ll21 mRNA X axis (Log2(fold change)) (Hepa1-6 tumors, vs vehicle): −1.79
- ll22 mRNA Fold Change Test Group/Control Group (Hepa1-6 tumors, vs vehicle): 0.37
- ll22 mRNA Fold Up- or Down-Regulation Test Group/Control Group (Hepa1-6 tumors, vs vehicle): −2.67
- ll22 mRNA X axis (Log2(fold change)) (Hepa1-6 tumors, vs vehicle): −1.42
- ll23a mRNA Fold Change Test Group/Control Group (Hepa1-6 tumors, vs vehicle): 0.44
- ll23a mRNA Fold Up- or Down-Regulation Test Group/Control Group (Hepa1-6 tumors, vs vehicle): −2.25
- ll23a mRNA X axis (Log2(fold change)) (Hepa1-6 tumors, vs vehicle): −1.17
- ll24 mRNA Fold Change Test Group/Control Group (Hepa1-6 tumors, vs vehicle): 0.43
- ll24 mRNA Fold Up- or Down-Regulation Test Group/Control Group (Hepa1-6 tumors, vs vehicle): −2.34
- ll24 mRNA X axis (Log2(fold change)) (Hepa1-6 tumors, vs vehicle): −1.23
- ll27 mRNA Fold Change Test Group/Control Group (Hepa1-6 tumors, vs vehicle): 0.46
- ll27 mRNA Fold Up- or Down-Regulation Test Group/Control Group (Hepa1-6 tumors, vs vehicle): −2.19
- ll27 mRNA X axis (Log2(fold change)) (Hepa1-6 tumors, vs vehicle): −1.13
- number of mRNAs with decreased expression [1]: 40 mRNAs
- number of mRNAs with increased expression [1]: 5 mRNAs
